From US20090325911A1, “Use of Androgens for the Treatment of Parkinson's Disease” (CARITAS ST. ELIZABETH MEDICAL CENTER OF BOSTON, INC., priority 2005, published 2009)
Like-named read-outs stand apart in the source and are kept apart here.

Tests used:
[1] = most potent of the male steroid hormones; cited from earlier work
[2] = tested on: AKT; conditions: 10 nM DHT
Experimental: DJ-1 likely serves as a transcriptional co-activator of androgen receptor^50,51. To determine whether androgen receptor and androgen activate the AKT pathway in human dopaminergic cell lines, native SH-SY5Y cells were treated with 10 nM of […], and levels of phosphorylated AKT was assayed by Western blot. […] The role of androgen receptor signaling in the activation of AKT was also tested in SH-SY5Y cells that were transiently transfected with human androgen receptor then treated with […].
(§1) Human CHP-212 cells were purchased from ATCC and maintained in cell culture media, EMEM/F-12 (50%/50%) containing 10% FBS and antibiotics. Native SH-SY5Y cells were maintained in DMEM supplemented with 10% FBS and antibiotics. For immunofluorescence, cells were grown on coverslips. […] Rat tyrosine hydroxylase-luc reporter plasmid (Kim et al Biochem Biophys Res Commun. 2003 Dec. 26; 312(4):950-7) and the pTK-Renilla luciferase plasmid for transfection control were obtained from Promega (Madison, Wis.). Human androgen receptor expression construct PCMV-Flag-AR was kindly provided by Dr. E. Wilson^75. H2O2 and DHT were purchased from Sigma (St. Louis, Mo.).
(§2) The procedures for western blotting and immunoprecipitation were described previously^48. […]

[3] = tested on: SH-SY5Y cells
Experimental: FIG. 8A is a graph that quantifies relative cell viability in SH-SY5Y cells that were pretreated with dihydroxytestosterone (DHT) (1 or 10 nM) or vehicle control (Ethanol) for twenty-four hours, then were subjected to H2O2 (500 μM) treatment plus dihydroxytestosterone (1 or 10 nM) or vehicle control for an additional twenty-four hours. Cell toxicity was evaluated using a 3-(4,5-dimethylthiazol-2-yl)-2,5-diphenyltetrazolium bromide (MTT) assay. […] Cells were re-plated and pretreated with 10 nM dihydroxytestosterone or vehicle control (ethanol) for twenty-four hours, followed by H2O2 (300 μM) treatment plus 10 nM dihydroxytestosterone or vehicle control for additional 24 hours. Cell toxicity was evaluated by MTT assay. Values are the mean±s.e.m. n=3 experiments; *: P=0.0068 (t-test).
To evaluate whether dihydroxytestosterone similarly protects against oxidative stress-induced cell death in human dopaminergic neuroblastoma cells, SH-SY5Y cells were treated with increasing amount of dihydroxytestosterone in the presence or absence of 500 μM of hydrogen peroxide (H2O2). […] The siRNA treated cells were then further treated with 10 nM of dihydroxytestosterone in the presence or absence of 300 μM of H2O2.

[4] = tested on: tyrosine hydroxylase; conditions: untransfected CHP-212 cells, DHT 0-1000 nM, forty-eight hours
Experimental: as §1, §2

[5] = tested on: tyrosine hydroxylase; conditions: CHP-212 cells pre-transfected with DJ-1-specific siRNA, increasing amount of DHT for forty-eight hours
Experimental: The procedures for western blotting and immunoprecipitation were described previously^48. For DJ-1 immunoprecipitation, cells were lysed in denaturing RIPA-DOC buffer (50 mm Tris-HCl buffer (pH 8.0), containing 150 mM NaCl, 1% Triton X-100, 0.1% SDS, 1% sodium deoxycholate, 10 mM EDTA and a protease inhibitor cocktail (1× protease cocktail, Roche (Indianapolis, Ind.). For endogenous DJ-1 and PSF co-immunoprecipitation, cells were lysed in non-denaturing lysis buffer containing 1% Triton-X100. […] Antibody used for immunoprecipitation: rabbit polyclonal anti-DJ-15. Antibodies for western blotting include: a mouse monoclonal anti-tyrosine hydroxylase (Sigma); monoclonal (Stressgen, San Diego, Calif.) and polyclonal anti-DJ-1; a goat anti-β-actin (Santa Cruz Biotechnology, Santa Cruz, Calif.); a rabbit polyclonal anti-androgen receptor (Upstate, Charlottesville, Va.); a rabbit polyclonal anti-AKT and a mouse monoclonal anti-Phospho-AKT (Cell signaling, Beverly, Mass.). Antibodies used for immunoprecipitation included a mouse monoclonal anti-PSF (Sigma) and a rabbit polyclonal anti-DJ-1^18.

[6] = tested on: CHP-212 cells; conditions: DJ-1 siRNA, 10 nM DHT, 300 μM H2O2
Experimental: Cells were re-plated and pretreated with 10 nM dihydroxytestosterone or vehicle control (ethanol) for twenty-four hours, followed by H2O2 (300 μM) treatment plus 10 nM dihydroxytestosterone or vehicle control for additional 24 hours. Cell toxicity was evaluated by MTT assay. Values are the mean±s.e.m. n=3 experiments; *: P=0.0068 (t-test).
To test whether dihydroxytestosterone can reverse this increased susceptibility, endogenous DJ-1 expression in CHP-212 cells was inhibited using DJ-1-specific siRNA. […] The siRNA treated cells were then further treated with 10 nM of dihydroxytestosterone in the presence or absence of 300 μM of H2O2.
CHP-212 cells or SH-SY5Y cells were plated in six-well culture dishes and transfected with 100 nM of siRNA against human DJ-1 constructs (SMARTpool reagent, Dharmacon, Lafayette, Colo.) or non-specific control siRNA constructs (siControl non-targeting pool, Dharmacon). […] Cells were harvested forty-eight hours post-transfection for RNA extraction or at Day 1,2, or 4 for Western blot or re-plated in 96 well plate for MTS assay at 48 hrs post-transfection.

C[C@]12CCC(=O)C[C@@H]1CC[C@@H]1[C@@H]2CC[C@]2(C)[C@@H](O)CC[C@@H]12 [dihydroxytestosterone, dihydrotestosterone]
activity relative to testosterone [1]: 10 times
time of peak level of phosphorylated AKT after treatment ([2]; SH-SY5Y cells transiently transfected with Flag-AR): 15 min
time of peak level of phosphorylated AKT after treatment ([2]; native SH-SY5Y cells): ninety
AKT phosphorylation ([2]; native SH-SY5Y cells, 5-90 minutes, no increase of total AKT): rapid phosphorylation of AKT
cell death induced by oxidative stress ([3]; DHT 1 or 10 nM pretreatment 24 h, then 500 μM H2O2 plus DHT 24 h): significantly blocked cell death
effect on cell viability in the absence of H2O2 ([3]; DHT 1 or 10 nM, no H2O2): subtle effect
tyrosine hydroxylase protein levels [4]: dose-dependent increase
rescue of tyrosine hydroxylase expression after DJ-1 inactivation [5]: fully rescued
oxidative stress-induced cell death in DJ-1-specific siRNA treated cells [6]: significantly reduced oxidative stress-induced cell death
